Key:
[1] = tested on: Agaricus bisporus mycelia; assay: Dry matter of mycelia grown in potato dextrose yeast broth at 25° C.; assay type: cell-based, Agaricus bisporus (hybrid off-white); conditions: Week 5, control 15.6 b
Method: The commercial mushroom spawn (hybrid off-white), Agaricus bisporus (Lange) Imbach, was obtained from Alpha Spawn Co., Avondale, Pa., and inoculated onto potato dextrose yeast (PDY) agar (Difco) and incubated at 25° C. A pure culture was obtained from the grain spawn grown on petri dishes and re-inoculated into PDY agar and maintained at 25° C. before use.
The mushroom culture was grown on PDY agar or in PDY broth, both containing 0.5% yeast extract. The broth was dispensed into flasks prior to autoclaving, 50 mL. per flask, while 5 mL of sterile ODA solutions were aseptically added into flasks before inoculation.
To prepare ODA solutions, about 18.4 mg (0.1 mmole) of 10-oxo-trans-8-decenoic acid prepared as described above were dissolved in i mL ethanol and diluted with deionized water to 100 mL to give a molar concentration of 10^-3 M, and then diluted in order to add 1.0 mL of the solutions to each flask to give the required final concentrations.
Sterile ODA solutions were aseptically added into the autoclaved agar medium to achieve the desired final ODA concentrations, and then the medium was dispensed into petri dishes, ca 30 ml per dish. The levels of ODA tested included 2×10^-4, 10^-4, 10^-5, 10^-6 and 10^-7 M for both PDY agar and broth. These flasks and dishes were inoculated with 1 mm mycelial plugs from 4-week old cultures and incubated statically at 25° C. for 5 weeks. Each week, ca 300 μL of broth was aseptically taken from the flasks for laccase assay, while the colony diameter of every petri dish was measured using a vernier caliper to calculate the linear growth of the culture.
After 5-weeks of incubation, the dry matter of mycelia was determined by vacuum filtering liquid cultures in PDY broth through weighed filter paper, and drying to constant weight at 70° C.
Methods for the estimation of total fungal growth include the measurement of dry matter, linear growth, carbon dioxide evolution, chitin, ATP as well as extracellular laccase activity (Cochrane, (1958); Wood, (1979)). In this research the linear growth rate was used to examine the growth of mushroom mycelia on agar plates, while the extracellular laccase activity and dry matter were determined to estimate the growth of mycelia in liquid cultures. Extracellular laccases (p-diphenol: oxygen oxidoreductase, EC 1.10.3.2) produced by various classes of fungi are reported to be involved in biotransformation of lignin and lignosulfonate (Anders et al., (1976)), as well as in the breakdown of cellulose by cellulase (Westermark et al., (1974a); Westermark et al., (1974b); Haars et al., (1980)). Although the role of laccase in growth and development of Agaricus bisporus is not well defined, it has been observed that laccase production correlated with mycelial biomass of this fungus (Wood, (1979); Matcham et al., (1985); Claydon et al., (1988)).

[2] = tested on: separated stipes of Agaricus bisporus; assay: Elongation of upper stipes of separated stipes (upper and lower portions) on test agar containing ODA, 3-day storage at 12° C.; set-up: species or system Agaricus bisporus (hybrid off-white); conditions: for % Elongation of upper stipes, Mean: control 14.4
Method: Four type strains of mushrooms were used: the white, off-white, hybrid white (U3) and hybrid off-white (U1). Mushrooms from each flush were harvested before the veil was broken. Freshly harvested mushrooms were transported within about one hour after harvest to Borland Laboratory and placed in the pilot plant cold room (4° C.) for about two hours before sampling. Mushrooms were sorted on the basis of size and appearance. Diseased, damaged, misshapen, veil-opened and extremely large or small mushrooms (>40 or <25 mm in cap diameter) were discarded. Mushrooms of uniform size (25-40 mm) and maturity of the button stage (stage 1, veil intact tightly) were used in this research.
Whole stipes were cut at the lower portions to a length of 7-9 mm to standardize the sample, and marked at the middle of the veil, which is the location where the veil attaches to the stipe, to indicate the upper and lower stipes. The separated stipes contained 2-4 mm of upper stipes and 5-6 nun of lower stipes. For the study using separated upper stipes, mushrooms were dissected directly into upper stipes with a length of 3-5 mm. The separated stipes or upper stipes were put upside down on the test agar containing various mushroom supernatants or ODA concentrations; i.e., the upper sides in contact with the agar surface (FIG. 12). All petri dishes were covered and stored at 12° C. The length of separated stipes and upper stipes was measured using a vernier caliper before and after certain days of storage.
Sterile ODA solutions were aseptically added into the autoclaved agar solutions to achieve the desired final ODA concentrations. The agar solution was then dispensed into dishes, ca 20.8 mL per dish. The level of ODA tested included 10^-4, 10^-5, 10^-6, 10^-7, and 10^-8 M. Mushrooms (hybrid off-white) from 6 different crops were used to study their postharvest growth. In the first 2 experiments, mushroom stipes were measured after 4-day storage at 12° C. In order to prevent stipe deterioration and desiccation of the test agar, in the following experiments mushroom stipes were measured after 3-day storage at 12° C.
The experimental data were subjected to a single classification analysis of variance (AOV) for a completely randomized design (Steele et al., 1980). Fisher's protected least significant difference (LSD) was applied to separate the means. The level of significance used in this research was 0.05.
ODA stimulated the elongation of upper stipes in excess of the control, but the response occurred only when the lower portions were present. The additional elongation of upper stipes was stimulated by ODA at a concentration as low as 10^-8 M (0.00184 ppm).

O=C/C=C/CCCCCCC(=O)O [ODA, 10-oxo-trans-8-decenoic acid]
Dry matter ([1]; ODA 2 × 10^-4 M (36.8 ppm)): 16.7 mg | Dry matter ([1]; ODA 10^-4 M (18.4 ppm)): 23.2 mg | Dry matter ([1]; ODA 10^-5 M (1.84 ppm)): 48.5 mg | Dry matter ([1]; ODA 10^-6 M (0.184 ppm)): 44.1 mg | Dry matter ([1]; ODA 10^-7 M (0.0184 ppm)): 16.9 mg | minimal effective concentration ([2]; Agaricus bisporus, 72 h, 0.00184 ppm, separated stipes with lower portions, read-out: lowest concentration stimulating additional elongation of upper stipes): 0.01 µM | % Elongation of upper stipes, Mean ([2]; ODA 10^-4 M (18.4 ppm)): 30.0% | % Elongation of upper stipes ([2]; ODA 10^-4 M (18.4 ppm), rep 1, control 14.5): 25.1% | % Elongation of upper stipes ([2]; ODA 10^-4 M (18.4 ppm), rep 2, control 11.6): 30.5% | % Elongation of upper stipes ([2]; ODA 10^-4 M (18.4 ppm), rep 3, control 17.1): 34.2% | % Elongation of upper stipes, Mean ([2]; ODA 10^-5 M (1.84 ppm)): 27.7% | % Elongation of upper stipes ([2]; ODA 10^-5 M (1.84 ppm), rep 1, control 14.5): 30.7% | % Elongation of upper stipes ([2]; ODA 10^-5 M (1.84 ppm), rep 2, control 11.6): 25.0% | % Elongation of upper stipes ([2]; ODA 10^-5 M (1.84 ppm), rep 3, control 17.1): 27.4% | % Elongation of upper stipes, Mean ([2]; ODA 10^-6 M (0.184 ppm)): 29.5% | % Elongation of upper stipes ([2]; ODA 10^-6 M (0.184 ppm), rep 1, control 14.5): 27.5% | % Elongation of upper stipes ([2]; ODA 10^-6 M (0.184 ppm), rep 2, control 11.6): 24.7% | % Elongation of upper stipes ([2]; ODA 10^-6 M (0.184 ppm), rep 3, control 17.1): 36.2% | % Elongation of upper stipes, Mean ([2]; ODA 10^-7 M (0.0184 ppm)): 30.9% | % Elongation of upper stipes ([2]; ODA 10^-7 M (0.0184 ppm), rep 1, control 14.5): 27.3% | % Elongation of upper stipes ([2]; ODA 10^-7 M (0.0184 ppm), rep 2, control 11.6): 38.3% | % Elongation of upper stipes ([2]; ODA 10^-7 M (0.0184 ppm), rep 3, control 17.1): 27.2% | % Elongation of upper stipes, Mean ([2]; ODA 10^-8 M (0.00184 ppm)): 30.5% | % Elongation of upper stipes ([2]; ODA 10^-8 M (0.00184 ppm), rep 1, control 14.5): 23.7% | % Elongation of upper stipes ([2]; ODA 10^-8 M (0.00184 ppm), rep 2, control 11.6): 32.7% | % Elongation of upper stipes ([2]; ODA 10^-8 M (0.00184 ppm), rep 3, control 17.1): 35.1% | effect on upper stipe elongation (in words) ([2]; all levels, only when lower portions present): significant effect
